# Results: patent US20230391817A1, “5ALPHA-HYDROXY-6BETA-[2-(1-H-IMIDAZOL-4-YL)-ETHYLAMINO]-CHOLESTAN-3BETA-OL ANALOGUES AND PHARMACEUTICAL COMPOSITIONS COMPRISING SAME FOR USE IN THE TREATMENT OF CANCER” (priority 2020, published 2023)
# pIC50: −log10 of the molar value. Read-outs that look alike come from different tables or passages of the source.
# Experiments:
# [1] = tested on: murine 4T1 mammary tumor cells; experiment: Cell viability of 4T1 cells, MTT; type: cell-based; settings: for IC50 / pIC50: Mus musculus, 4T1, MTT, 48 h; for IC50: log of IC50 in μM, read-out: Mean LogIC50 (±SEM) (converted); for pIC50: read-out: IC50
# Procedure: (§1) Cell viability tests were performed on murine 4T1 mammary tumor cells characterized as triple negative (HER2-, ER-, PR-).
# (§2) For this experiment, a cell culture medium was prepared. The culture medium consisted of Dulbecco's Modified Eagle Medium (DMEM, sold by Westburg as LO BE12-604F), comprising 4.5 g/L glucose with L-glutamine, to which 10% fetal calf serum (FCS) and 50 U/ml penicillin/streptomycin are added. The 4T1 cells were introduced into this culture medium.
# (§3) 96-well plates were seeded with 2000 4T1 cells per well. After 72 hours (h) of culture under normal condition, i.e. in an incubator at 37° C. at […], the 4T1 cells were treated for 48 h with DX101, DX103, DX111, DX123, DX125, DX127 and DX129 at 100 nM, 1 μM, 2.5 μM and 10 μM. A control condition (CTL) is also performed in parallel using the previously described protocol without treatment with the molecules DX101, DX103, DX111, DX123, DX125, DX127 or DX129.
# (§4) The cell viability is measured by three different methods. For the first method, MTT labeling is performed at 48 hours. This test is based on the use of the tetrazolium salt MTT (3-(4,5-dimethylthiazol-2-yl)-2,5-diphenyltetrazolium bromide). Tetrazolium is reduced by mitochondrial succinate dehydrogenase in active live cells to formazan, a purple colored precipitate. The amount of precipitate formed is proportional to the amount of live cells but also to the metabolic activity of each cell. Thus, a simple determination of the optical density at 550 nm by spectroscopy makes it possible to determine the relative amount of live and metabolically active cells. After 48 hours, the medium is aspirated, and the cells are incubated with MTT (0.5 mg/ml in culture medium) for about 3 hours. The MTT solution is aspirated and the purple crystals are dissolved in dimethyl sulfoxide (DMSO). The OD (optical density) is measured at 550 nm. The percentage of viability is then determined in each well against the CTL and the IC50 (concentration at which 50% of cells remain alive) is determined for each molecule with the Prism software using a nonlinear regression curve (log(inhibitor) vs. Response).
# [2] = tested on: BT-474 human mammary tumor cells; experiment: Cell viability of BT-474 cells, trypan blue; type: cell-based; settings: BT-474, Trypan Blue, 48 h; for Mean LogIC50 (±SEM): log of IC50 in μM; for pIC50: Homo sapiens
# Procedure: (§5) Cell viability tests were also performed on BT-474 human mammary tumor cells (characterized as triple positive HER2+, ER+, PR+). The BT-474 cells were in a cell culture medium identical to the previous example and seeded in 24-well plates at 70 000 cells per well for cell viability determination using trypan blue, or in 96-well plates at 13 000 cells per well for cell viability determination using the MTT or LDH assay. After 96 hours (h) of culture under normal conditions, i.e. in an incubator at 37° C. with […], BT-474 cells were treated for 48 h with DX101, DX103, DX105, DX111, DX123 and DX127 at 100 nM, 1 μM, 2.5 μM and 10 μM. A control is also performed using the protocol described previously without treatment with DX101, DX103, DX105, DX111, DX123 and DX127.
# (§6) After a 10-minute trypsin digestion at 37° C., the cell survival was also quantified by means of a trypan blue test with automatic counting using the Biorad TC20 machine (TC20™ Automated Cell Counter). The trypan blue test is based on the integrity of cell membranes, which is disrupted in the dead cells. Trypan blue stains dead cells blue. The Biorad TC20 cell counter counts the proportion of blue and non-blue cells, and reports the percentage of cells. The percentage of viability is then determined in each well relative to the untreated cells and the IC50 is determined as explained in the preceding example. Also, the percentage viability of the BT-474 cells was determined using the MTT and LDH assay, performed as described in the preceding example.
# [3] = tested on: BT-474 human mammary tumor cells; experiment: Cell viability of BT-474 cells, MTT; type: cell-based; settings: for Mean LogIC50 (±SEM) / pIC50: BT-474, MTT, 48 h; for Mean LogIC50 (±SEM): log of IC50 in μM; for pIC50: Homo sapiens
# Procedure: as §4, §5, §6
# [4] = Pharmacokinetics and bioavailability, oral and I.V., in rats (Example 28); type: in vivo; settings: rat
# Procedure: Plasma sampling at 0 (without injection), 15, 30 min, 1 h, 4 h, 8 h, 24 h, 48 h, 72 h
# 4T1 tumors = experiment: Tumor growth and survival in vivo, subcutaneous 4T1 tumors in Balb/c mice; settings: 40 mg/kg, gavage, daily; for Inhibition of tumor growth at 7 days: Balb/c mice with 4T1 tumors
# Procedure: All the animal procedures were conducted according to our institutional guidelines after approval by the ethics committee. The 4T1 cells were cultured as previously, dissociated in trypsin, washed twice with cold PBS and resuspended in 1.5 million/ml PBS. 4T1 tumors were obtained by subcutaneous transplantation of 0.150 million cells in 100 μL into the flank of female Balb/c mice (9 weeks old, […]). When the tumors reached a volume of 50-100 mm^3, the mice were gavaged with 40 mg/kg of DX101 or 40 mg/kg of DX111 or the control vehicle (water). Treatment was performed daily until the end of the experiment (tumor volume >1000 mm^3). Tumor volume was determined daily using a caliper and calculated using the formula: ½×(Length*Width^2). The percentage of tumor growth inhibition was determined using the following formula: 100×(1-(Tumor volume, day 7/tumor volume day 0)DX111)/(1-(Tumor volume, day 7/tumor volume day 0)vehicle).
# The Kaplan-Meier method was used to compare animal survival.
# [5] = tested on: murine 4T1 mammary tumor cells; experiment: Cell viability of 4T1 cells, CellTox Green Cytotoxicity Assay; type: cell-based; settings: Mus musculus, 4T1, Green Cytotoxicity Assay, 48 h; for IC50: log of IC50 in μM, read-out: Mean LogIC50 (±SEM) (converted); for pIC50: read-out: IC50
# Procedure: as §1, §2, §3
# For the third method, the percentage viability is determined using the CellTox Green Cytotoxicity Assay kit (Promega). This assay measures cell death via a change in membrane integrity. […] Consequently, the higher the fluorescence in the wells, the greater the cell death. […] The percentage of cell death is determined using the 100% cell death control (made from untreated cells incubated in the presence of the lysis solution for 30 minutes at 37° C. prior to the addition of Celltox green reagent), and the cell viability in each well is then deduced from this percentage. The IC50 is then determined as explained previously.
compound,measurement,setting,value
"CC(C)CCC[C@@H](C)[C@H]1CC[C@H]2[C@@H]3C[C@@H](NCCc4c[nH]cn4)[C@@]4(O)C[C@@H](O)CC[C@]4(C)[C@H]3CC[C@]12C [DX101, 5α-hydroxy-6β-[2-(1H-imidazol-4-yl)ethylamino]cholestan-3β-ol, reference compound]",IC50,[1],4.37 µM
same,pIC50,[1],5.36
same,Mean LogIC50 (±SEM),[2],0.61 ± 0.20
same,pIC50,[2],5.39
same,Mean LogIC50 (±SEM),[3],0.88 ± 0.03
same,pIC50,[3],5.12
same,clearance,"[4]; plasma, iv, 5 mg/kg, read-out: Clearance",11 mL/min/kg
same,half-life,"[4]; plasma, iv, 5 mg/kg, read-out: T½ 2nd phase (converted)",28 h
same,bioavailability,"[4]; plasma, po 50 mg/kg versus iv 5 mg/kg, read-out: F %",3%
same,half-life,"[4]; plasma, po, 50 mg/kg, read-out: T½ 2nd phase (converted)",39 h
same,ASC(t0-tlast),"[4]; iv, 5 mg/kg, plasma",6205
same,Cmax,"[4]; iv, 5 mg/kg, plasma, read-out: Cmax",3310 ng/mL
same,Vd,"[4]; plasma, iv, 5 mg/kg, iv, 5 mg/kg, read-out: Vd",29 L/kg
same,Vd,"[4]; plasma, iv, 5 mg/kg, iv, 5 mg/kg, read-out: Vss",19 L/kg
same,clearance,"[4]; po, 50 mg/kg",412 mL/min/kg
same,ASC(t0-tlast),"[4]; po, 50 mg/kg, plasma",1546
same,Cmax,"[4]; po, 50 mg/kg, plasma, read-out: Cmax",77 ng/mL
same,Tmax,"[4]; po, 50 mg/kg, plasma, read-out: Tmax",4 h
same,median survival,4T1 tumors,9 days
same,survival after 15 days of treatment,4T1 tumors,0%
same,Inhibition of tumor growth at 7 days,4T1 tumors,48%
same,IC50,[5],2.69 µM
same,pIC50,[5],5.57
"CC(C)CCC[C@@H](C)[C@H]1CC[C@H]2[C@@H]3C[C@@H](NCCc4c[nH]cn4)[C@@]4(O)C[C@@H](F)CC[C@]4(C)[C@H]3CC[C@]12C [DX111, 3β-fluoro-5α-hydroxy-6β-[2-(1H-imidazol-4-yl)ethylamino]cholestane]",cytotoxic activity compared with DX101,"[1]; 4T1, Tables 1a, 1b and 1c (MTT, LDH, Green Cytotoxicity Assay)",higher
same,IC50,[1],1.7 µM
same,pIC50,[1],5.77
same,Mean LogIC50 (±SEM),[2],0.78 ± 0.15
same,pIC50,[2],5.22
same,Mean LogIC50 (±SEM),[3],0.95 ± 0.10
same,activity compared with DX101,"[3]; BT-474, Tables 2a, 2b and 2c (MTT, LDH, Trypan Blue)",similar
same,pIC50,[3],5.05
same,bioavailability,[4]; in vivo,10%
same,ASC(t0-tlast),"[4]; in vivo, iv, 5 mg/kg",3516
same,Cmax,"[4]; in vivo, iv, 5 mg/kg",2970 ng/mL
same,clearance,"[4]; in vivo, iv, 5 mg/kg",25 mL/min/kg
same,half-life,"[4]; in vivo, iv, 5 mg/kg",21 h
same,Vd,"[4]; in vivo, iv, 5 mg/kg, Vd",43 L/kg
same,Vd,"[4]; in vivo, iv, 5 mg/kg, Vss",12 L/kg
same,bioavailability compared with DX101,"[4]; in vivo, po",three-fold higher bioavailability
same,clearance compared with DX101,"[4]; in vivo, po",halved
same,maximum plasma concentration compared with DX101,"[4]; in vivo, po",four times higher
same,ASC(t0-tlast),"[4]; in vivo, po, 50 mg/kg",3228
same,Cmax,"[4]; in vivo, po, 50 mg/kg",309 ng/mL
same,Tmax,"[4]; in vivo, po, 50 mg/kg",4 h
same,clearance,"[4]; in vivo, po, 50 mg/kg",240 mL/min/kg
same,half-life,"[4]; in vivo, po, 50 mg/kg",24 h
same,median survival,4T1 tumors,10 days
same,survival after 15 days of treatment,4T1 tumors,25%
same,Inhibition of tumor growth at 7 days,4T1 tumors,67%
same,effect on tumor growth reduction compared with DX101,4T1 tumors; p<0.01,superior effect
same,IC50,[5],2.19 µM
same,pIC50,[5],5.66
